Source: ChEMBL document CHEMBL3507680, “University of Dundee, Gates Library screen for HepG2 cell viability”

Assay: Human HepG2 cell viability assay in 384 well format
Type: toxicity, cell-based
Parameters: dose 125 nL, time 70.5 hour; cytotoxicity at 70.5 h: concentration not given beside the values
Conditions: HepG2 cells, read-out: Inhibition

| Structure (SMILES) | cytotoxicity at 70.5 h [%] |
| --- | --- |
| CCOCC(=O)N1C[C@@H]2CC[C@H](Oc3ccccc3)[C@@H]2C1 | -3.41 |
| Nc1nccnc1C1CN(C(=O)c2cnccn2)CCO1 (stereo not drawn) | -4.25 |
| O=C(N[C@@H]1CCC[C@@H](N2CCOCC2)[C@@H]1O)c1cnn2cccnc12 | -1.42 |
| Cc1noc(C)c1-c1ccc(C2CCCN2C(=O)c2cnn(C)c2)nc1 (stereo not drawn) | -0.651 |
| Cc1nc2ccc(C(=O)N3C[C@@H](O)[C@H](N4CCN(C)CC4)C3)cc2[nH]1 | -4.75 |
| CC(=O)N1CCc2nc(C3CCN(C(=O)c4ccccc4)C3)ncc2C1 (stereo not drawn) | 0.561 |
| COCCN1CCN(Cc2cnc(C(C)C)nc2)CC1 | 16.4 |
| CCc1ncc(CN2CCN(CCOC)CC2)cn1 | 7.17 |
| Cc1nc2ccc(C(=O)N3CC[C@H](O)[C@@H](N4CCOCC4)CC3)cc2[nH]1 | 0.0805 |
| CN(C(=O)c1ccon1)[C@@H]1CCC[C@@H](Oc2ccccc2)[C@@H]1O | -1.37 |
| O[C@H]1CN(Cc2cccc(C(F)(F)F)c2)CC[C@@]12CCCO2 | 15.6 |
| CN1CCCC(c2ccnc(C(=O)NCC3CC3)c2)C1 (stereo not drawn) | -2.35 |
| CS(=O)(=O)c1cn[nH]c1C1CCCCN1C(=O)Cc1cccnc1 (stereo not drawn) | 5.76 |
| CNc1cncc(C2CCCN2S(=O)(=O)c2ccccc2F)n1 (stereo not drawn) | -0.0855 |
| Cn1nccc1CCC(=O)N1CCOC(c2cnccn2)C1 (stereo not drawn) | -12.6 |
| Fc1ccccc1OCCc1cc(C2CCNC2)n[nH]1 (stereo not drawn) | -4.09 |
| Cc1ncc(CN2CCOC(c3ccc(-c4cnn(C)c4)cn3)C2)s1 (stereo not drawn) | -6.63 |
| Cc1noc(C2(C)CCCN(C(=O)c3cccnc3)C2)n1 (stereo not drawn) | 11.1 |
| O=C(CCc1cccnc1)N1CCC(c2cnccn2)CC1 | -6.11 |
| Cc1n[nH]c(C)c1-c1cnc(CC2CCCN(S(C)(=O)=O)C2)cn1 (stereo not drawn) | -10.2 |
| Cc1cc(N2CC(c3n[nH]c4nccnc34)C2)ncn1 | -9.37 |
| CNC(=O)c1cn[nH]c1C1(C)CCCN(CC2(O)CCCCC2)C1 (stereo not drawn) | -6.79 |
| Cc1c(C(=O)N2CCC(O)(CN(C)C)C2)c2ccccc2n1C (stereo not drawn) | 11 |
| CCc1nnc(Nc2cccc(C3CCN(C)CC3)n2)s1 | 35 |

| Structure (SMILES) | cytotoxicity at 70.5 h [%] |
| --- | --- |
| c1cnc(C2CCCN2c2cnccn2)cn1 (stereo not drawn) | 6.08 |
| CCc1nnc(Nc2cccc(C3CCN(C(C)=O)CC3)n2)s1 | 44.9 |
| CC(=O)N1CCCC1c1ccnc(Nc2cncnc2)n1 (stereo not drawn) | -15.4 |
| Cc1nc(Nc2ncccn2)cc(C2CCCN2C(C)C)n1 (stereo not drawn) | -14 |
| Cc1nc(Nc2cnccn2)cc(C2CCCN(C(C)C)C2)n1 (stereo not drawn) | -8.23 |
| Cc1ccccc1S(=O)(=O)N1CCC(c2[nH]ncc2C)C1 (stereo not drawn) | -8.88 |
| COC(=O)N1CCCN(Cn2nc(C)c(Br)c2C)CC1 | 31.2 |
| CCc1noc(CN2CCOC3(CCCC3)C2)n1 | -2.11 |
| COCCCNC(=O)CN(C)C(C)c1nc(C(C)C)no1 (stereo not drawn) | -4.17 |
| CCC(=O)N1CCCN(Cn2nc(C)c(Br)c2C)CC1 | -0.667 |
| O=C(CSCCN1CCOCC1)N1CCc2ccccc2C1 | 17.6 |
| O=C(CSCCN1CCOCC1)N1CCCCCC1 | 29.9 |
| Cc1nc(CN2CCCC(C)(CO)C2)no1 (stereo not drawn) | -4.42 |
| CC(=O)c1cc(Br)cc(F)c1OCC(=O)NC(C)C | -4.15 |
| Cn1ccnc1S(=O)(=O)C(C(=O)N1CCCCC1)c1ccccc1 (stereo not drawn) | 23.2 |
| Cc1nn(C)c(C)c1NC(=O)CN1CCOC(CN(C)C)C1 (stereo not drawn) | 5.23 |
| Cc1cccc(-c2ccc(C(=O)N3CCN(C4CC4)CC3)c(=O)[nH]2)c1 | 22.8 |
| CC(=O)N1CCN(C(=O)c2ccc(-c3cccc(C)c3)[nH]c2=O)CC1 | -2.2 |
| COc1ccc(CN2CCC(C(N)=O)C2)c(Br)c1OC (stereo not drawn) | 0.0817 |
| COc1ccccc1CC(C)CC(=O)O (stereo not drawn) | -11.2 |
| CC(C)c1cc(NC(=O)CNC2CCc3nc(C(C)C)nn3C2)on1 (stereo not drawn) | 4.46 |
| CS(=O)(=O)CCn1ccc(NC(=O)Cc2c[nH]c3ccccc23)n1 | 5.18 |
| O=S(=O)(CCc1ccccc1Cl)CC(O)CO (stereo not drawn) | -0.491 |
| O=C(C(c1ccccc1)S(=O)(=O)c1ccccc1)N1CCCCC1 (stereo not drawn) | 3.14 |

| Structure (SMILES) | cytotoxicity at 70.5 h [%] |
| --- | --- |
| O=S(=O)(Cc1cccc(F)c1)Nc1cc(Cl)ccn1 | 2.91 |
| O=C(NCc1ccon1)c1c(F)cc(Br)cc1F | -3.14 |
| NC(=O)c1cn(CC2CC2)c(C2CC2)n1 | -7.32 |
| Cc1cccc(NC(=O)NC2CCC3(C2)OCCO3)c1Cl (stereo not drawn) | -6.97 |
| Cn1ccnc1CNC1CCCOc2c1ccc1ccccc21 (stereo not drawn) | -6.96 |
| O=S(=O)(N1CCCCCC1)N1CCCN(CC2CCCO2)CC1 (stereo not drawn) | -1.63 |
| Cc1cc2ccccc2n1CC(=O)NC(C)C(=O)N1CCOCC1 (stereo not drawn) | -8.04 |
| O=C(Nc1ccccc1-c1ccccc1)NC1CCC2(C1)OCCO2 (stereo not drawn) | 27.5 |
| CCOC(C)c1nccn1Cc1c(C)noc1C (stereo not drawn) | -2.96 |
| Cc1csc(CNc2cnc3c(c2)c(C)nn3C)n1 | 12.8 |
| CC(C)(C)c1cnc(CN2CCCS2(=O)=O)o1 | -1.12 |
| Cc1ccc(OCc2cccc(C(=O)N(C)CCC#N)c2)cn1 | 0.941 |
| CC(=O)C(Cc1ccccc1)NC(=O)CSc1nncn1C (stereo not drawn) | -5.49 |
| COCCN(Cc1coc(-c2cccc(Cl)c2)n1)C1CC1 | -4.43 |
| Cc1cc(N(Cc2ccccc2F)C2CC2)n2nc(C(F)(F)F)nc2n1 | -1.77 |
| CN(C)C(=O)Cc1ccccc1NCc1nc(Cc2ccccc2)no1 | -0.0229 |
| Cc1noc(CNc2ccccc2CC(=O)N(C)C)n1 | -4.56 |
| Cc1[nH]ncc1CCCNC(=O)N1CCC(C(N)=O)CC1 | -4.17 |
| Fc1cccc2c1CCC2NCc1cnc(N2CCOCC2)nc1 (stereo not drawn) | -1.25 |
| CC(NCCn1cccn1)c1ccccc1F (stereo not drawn) | -0.726 |
| CC(C)Cc1noc(CNc2ccccc2CC(=O)N(C)C)n1 | -3.15 |
| COCCN(Cc1coc(-c2ccc(OC)cc2)n1)C1CC1 | -1.17 |
| O=C(CSCc1ccncc1)NCC1CCN(C2CC2)C1 (stereo not drawn) | 1.83 |
| CC(C)c1cnc(CN2CCCS2(=O)=O)o1 | -1.78 |

| Structure (SMILES) | cytotoxicity at 70.5 h [%] |
| --- | --- |
| CCC(O)(CNCc1ncc[nH]1)c1ccc(Br)cc1 (stereo not drawn) | -1.16 |
| CCc1ccc(C(=O)N2CCCC(c3nn[nH]n3)C2)cc1 (stereo not drawn) | -3.67 |
| CCCc1n[nH]c(C2CN(CCNC3CCCCC3)CCO2)n1 (stereo not drawn) | 9.34 |
| Cc1ncsc1C(=O)NCC1SCCc2ccccc21 (stereo not drawn) | 6.22 |
| Cc1cc(CN(C)C(=O)Nc2cnc3c(c2)c(C)nn3C)no1 | -8.11 |
| CC(C)N(C)C(=O)C1CSCN1S(=O)(=O)c1cc(Cl)ccc1Cl (stereo not drawn) | 11.9 |
| CC(C)(C)OC(=O)NCC1CCN(C(=O)c2cc(Cl)c[nH]2)CC1 | -14.2 |
| CC(C)N(C)C(=O)C1CSCN1S(=O)(=O)c1cccs1 (stereo not drawn) | -8.56 |
| COc1ccccc1CC1CCCN(C(=O)c2cc[nH]n2)C1 (stereo not drawn) | -6.57 |
| O=C(O)CCCc1ccc2c(c1)CC(=O)N2 | -9.78 |
| CC1CCCCN1S(=O)(=O)NCCN/C(O)=C1/N=CC=CC1=O (stereo not drawn) | -5.82 |
| CC(NC(=O)NCCC(=O)OC(C)(C)C)c1nncn1C (stereo not drawn) | -0.412 |
| CC(C(=O)Nc1cccc(Cl)c1SC(F)F)S(C)(=O)=O (stereo not drawn) | -3.11 |
| CC(C(=O)Nc1ccccc1Sc1ccccc1)S(C)(=O)=O (stereo not drawn) | -3.46 |
| CC(CNC(=O)c1ccncc1F)Oc1ccc(F)cc1 (stereo not drawn) | -0.61 |
| COCCC1(CNC(=O)Nc2ccc(-n3nccn3)cc2)CCC1 | 13.3 |
| OC1(CNCc2cnc(N3CCOCC3)nc2)CCCCC1 | -5.66 |
| COCCC1(CNC(=O)Nc2ccc(-n3cccn3)cc2)CCC1 | 2.32 |
| CC(C)S(=O)(=O)CCN1CCc2c(ncn2C2CC2)C1 | 3.39 |
| O=C(O)CC(NC(=O)CCCc1cccs1)c1ccc(F)cc1 (stereo not drawn) | -2.27 |
| COc1ccc(CN(Cc2cc(C)no2)C2CC2)cc1 | 0.248 |
| CN1CCOC(CNCCCOc2ccc(C#N)cc2)C1 (stereo not drawn) | -5.34 |
| Cc1cccc(N2CCN(CCS(=O)(=O)c3ccc(Br)cc3)CC2)c1C | -9.15 |
| Cc1ccccc1N1CCN(CCS(=O)(=O)c2ccc(Br)cc2)CC1 | 16 |

| Structure (SMILES) | cytotoxicity at 70.5 h [%] |
| --- | --- |
| O=S(=O)(CCN1CCN(c2ccccc2O)CC1)c1ccc(Br)cc1 | -8.18 |
| Cc1nc(-c2nnc[nH]2)sc1C(=O)N1CCCC1c1cccs1 (stereo not drawn) | -6.5 |
| COC(=O)Cn1ccc(NS(=O)(=O)c2ccc3c(c2)CCC3)n1 | 17 |
| Cc1nc(-c2nnc[nH]2)sc1C(=O)N1CCCC1c1ccsc1 (stereo not drawn) | -5.22 |
| Cc1nc(-c2nnc[nH]2)sc1C(=O)N1CCCC(C(F)(F)F)C1 (stereo not drawn) | -4.51 |
| Cc1noc(CCNC(=O)NCc2ccc(N3CCCCC3)cc2)n1 | -5.09 |
| Cc1noc(CCNC(=O)NCc2ccc(OC3CCCC3)cc2)n1 | 0.994 |
| Cc1nc(-c2nnc[nH]2)sc1C(=O)N1CCCC1Cn1cccn1 (stereo not drawn) | -3.3 |
| O=C(Cc1csc(-c2ccoc2)n1)NCCCN1CCCCC1 | -5.46 |
| O=C(Cc1csc(-c2ccoc2)n1)NCCC(=O)N1CCCCC1 | -2.09 |
| CC(C)c1csc(NC(=O)NC2CCCN(c3cnn(C)c3)C2)n1 (stereo not drawn) | -7.46 |
| O=C(NCCOc1ccc(Cl)cn1)Nc1nccs1 | 11 |
| c1nc(-c2nc(C3CCOC3)no2)cs1 (stereo not drawn) | -1.71 |
| N#Cc1csc(CNCCOc2ccccc2)c1 | 0.519 |
| CN1CCN(C(=O)c2cc(C#N)cs2)c2ccccc2C1 | -0.662 |
| CC1CN(C)c2ccccc2CN1C(=O)c1cc(C#N)cn1C (stereo not drawn) | 14.8 |
| CN1CCN(C(=O)c2cc(C#N)cn2C)c2ccccc2C1 | -2.54 |
| N#Cc1csc(CNCCOc2ncccc2Cl)c1 | 8.52 |
| CCC1CCC(CNC(=O)c2c[nH]c(=O)c(Cl)c2)CC1 (stereo not drawn) | -9.94 |
| Cc1nc(-c2nnc[nH]2)sc1C(=O)N1CCCC1CC(C)(C)C (stereo not drawn) | -5.06 |
| COc1cccc(C(=O)N2CCc3nc(C4CCCN4)ncc3C2)c1 (stereo not drawn) | -1.65 |
| FC(F)Oc1ccc(CNCc2cc(Cl)c3c(c2)OCO3)cc1 | -5.5 |
